ChEMBL document CHEMBL1201862, “PubChem BioAssay data set” (2004)
Counter-ions that a name gives are not always drawn. Values belong to the compound of their own block, whether it stands above or below them. Calls of active or inactive are those of the source.

Tests used:
[1] = Luminescence Cell-Based Dose Retest to Confirm Inhibitors of Cancer Stem Cells. [Related pubchem assays (depositor defined):AID2717, AID2721]; type: functional; conditions: Homo sapiens
[2] = viability loss in THP-1 monocytes – THP-1 cells, cytotoxicity control for Vif-APOBEC3G degradation inhibitor project, dose response (AID 1117359); type: functional; conditions: THP-1
[3] = molecular target: T1, Estrogen receptor (Homo sapiens, UniProt P03372);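 also: potency for inhibiting coactivator peptide recruitment to the receptor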
T1 sequence (P03372 whole entry): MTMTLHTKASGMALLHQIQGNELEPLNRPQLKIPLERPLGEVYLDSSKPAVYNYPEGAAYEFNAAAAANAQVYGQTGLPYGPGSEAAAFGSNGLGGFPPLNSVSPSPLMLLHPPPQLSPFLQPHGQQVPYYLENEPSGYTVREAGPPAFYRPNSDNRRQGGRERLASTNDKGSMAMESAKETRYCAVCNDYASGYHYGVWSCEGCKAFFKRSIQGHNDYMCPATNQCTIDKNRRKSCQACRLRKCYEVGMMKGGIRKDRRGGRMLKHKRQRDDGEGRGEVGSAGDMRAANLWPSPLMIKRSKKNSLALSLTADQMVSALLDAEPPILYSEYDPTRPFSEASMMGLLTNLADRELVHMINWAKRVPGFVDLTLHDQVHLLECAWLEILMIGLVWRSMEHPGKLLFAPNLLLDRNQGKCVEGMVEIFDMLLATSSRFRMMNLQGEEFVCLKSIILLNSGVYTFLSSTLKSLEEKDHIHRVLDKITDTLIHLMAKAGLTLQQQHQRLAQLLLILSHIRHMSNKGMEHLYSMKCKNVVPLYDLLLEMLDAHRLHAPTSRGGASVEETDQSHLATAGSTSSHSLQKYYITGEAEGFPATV

[4] = Trypanosoma cruzi growth suppression in host cells – NIH3T3 host cells, beta-gal luminescence, confirmation (AID 2044); type: functional, cell-based;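 also: intracellular parasites grown in NIH/3T3 mouse fibroblasts as host cells; luminescent beta-galactosidase reporter signal from transgenic T. cruzi replicating inside host cells; inhibitors lower the luminescence signal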
[5] = cells
[6] = NIH3T3 cell viability loss – ATP luminescence, mouse fibroblasts, counter-screen, dose response (AID 2010); type: functional, cell-based;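 also: cells exposed to compound for about 90 hours before reading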
[7] = cells; remark: listed apart in the source
[8] = viability of uninfected HEp-2 cells – cell-based, HTS, cytotoxicity control for RSV inhibitor project, dose response (AID 2410); type: functional; conditions: human respiratory syncytial virus
[9] = CellTiter-Glo luminescence survival assay, SW480 colon tumor line, concentration-response curve, half-maximal inhibitory concentration (AID 1117338); type: functional
[10] = Reduced DLD-1 viability, concentration-response, CellTiter-Glo luminescence (AID 1117352); type: functional
[11] = RKO cell viability reduction, dose response, CellTiter-Glo luminescence (AID 1117322); type: functional
[12] = cytotoxicity toward HCT116 cells – cell-based, CellTiter-Glo luminescence, IC50, dose response (AID 1117332); type: functional; conditions: HCT-116
[13] = cytotoxicity toward HT-29 cells – cell-based, CellTiter-Glo luminescence, IC50, dose response (AID 1117330); type: functional
[14] = cytotoxicity toward Colo320 cells – cell-based, CellTiter-Glo luminescence, IC50, dose response (AID 1117334); type: functional; conditions: COLO 320
[15] = molecular target: T2, Aspartyl aminopeptidase (Plasmodium falciparum 3D7, UniProt Q8I2J3); assay: Counterscreen for inhibitors of M1 and M17 aminopeptidases: QFRET-based biochemical high throughput dose response assay for inhibitors of the Plasmodium falciparum M18 Aspartyl Aminopeptidase (PFM18AAP). [Related PubChem assays: 1619 (Screening assay (M17LAP inhibitors).), 1445 (Screening assay (M1AAP inhibitors).)]
T2 sequence (Q8I2J3 whole entry): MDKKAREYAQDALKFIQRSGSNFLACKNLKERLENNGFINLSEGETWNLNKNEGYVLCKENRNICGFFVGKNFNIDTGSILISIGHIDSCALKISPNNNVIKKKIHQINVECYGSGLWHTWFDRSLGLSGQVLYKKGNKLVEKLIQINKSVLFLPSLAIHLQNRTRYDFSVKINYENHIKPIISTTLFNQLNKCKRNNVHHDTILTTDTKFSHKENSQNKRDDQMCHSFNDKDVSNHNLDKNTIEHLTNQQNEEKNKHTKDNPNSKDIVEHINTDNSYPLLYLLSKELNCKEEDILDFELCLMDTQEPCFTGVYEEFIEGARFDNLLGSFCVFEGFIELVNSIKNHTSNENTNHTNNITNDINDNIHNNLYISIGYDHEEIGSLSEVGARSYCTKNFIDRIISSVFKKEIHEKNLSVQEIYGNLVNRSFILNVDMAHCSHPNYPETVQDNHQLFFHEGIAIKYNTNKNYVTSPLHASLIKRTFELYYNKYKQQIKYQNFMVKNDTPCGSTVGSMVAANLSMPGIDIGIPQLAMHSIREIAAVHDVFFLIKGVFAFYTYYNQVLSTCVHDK

[16] = molecular target: T3, Leucine aminopeptidase (Plasmodium falciparum 3D7, UniProt Q8IL11); assay: P. falciparum M17LAP inhibitors, primary screen, biochemical, fluorogenic H-Leu-NHMec substrate, 1536-well (AID 1619); type: functional
T3 sequence (Q8IL11 whole entry): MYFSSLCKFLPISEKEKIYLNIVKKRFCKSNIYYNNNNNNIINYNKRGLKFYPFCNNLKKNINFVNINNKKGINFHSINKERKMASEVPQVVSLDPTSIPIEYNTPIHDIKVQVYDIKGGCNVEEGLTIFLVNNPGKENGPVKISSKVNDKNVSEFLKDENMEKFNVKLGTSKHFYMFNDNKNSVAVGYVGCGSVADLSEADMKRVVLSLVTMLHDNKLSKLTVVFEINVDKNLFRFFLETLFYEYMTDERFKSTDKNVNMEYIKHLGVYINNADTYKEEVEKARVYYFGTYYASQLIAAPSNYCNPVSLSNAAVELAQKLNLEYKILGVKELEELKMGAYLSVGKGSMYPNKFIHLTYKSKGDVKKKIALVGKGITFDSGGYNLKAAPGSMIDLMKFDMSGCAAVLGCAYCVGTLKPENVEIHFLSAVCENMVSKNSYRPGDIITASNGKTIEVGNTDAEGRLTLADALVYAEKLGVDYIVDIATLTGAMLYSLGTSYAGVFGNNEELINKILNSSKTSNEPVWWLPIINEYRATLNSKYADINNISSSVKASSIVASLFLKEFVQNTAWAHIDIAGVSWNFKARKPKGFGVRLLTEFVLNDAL

[17] = molecular target: Procathepsin L (Homo sapiens, UniProt P07711); assay: CTSL1 protease inhibition – biochemical, QFRET, 1536-well, counter-screen for M1/M17 aminopeptidase inhibitor project, dose response (AID 2214)
Chain of Procathepsin L (P07711 whole entry): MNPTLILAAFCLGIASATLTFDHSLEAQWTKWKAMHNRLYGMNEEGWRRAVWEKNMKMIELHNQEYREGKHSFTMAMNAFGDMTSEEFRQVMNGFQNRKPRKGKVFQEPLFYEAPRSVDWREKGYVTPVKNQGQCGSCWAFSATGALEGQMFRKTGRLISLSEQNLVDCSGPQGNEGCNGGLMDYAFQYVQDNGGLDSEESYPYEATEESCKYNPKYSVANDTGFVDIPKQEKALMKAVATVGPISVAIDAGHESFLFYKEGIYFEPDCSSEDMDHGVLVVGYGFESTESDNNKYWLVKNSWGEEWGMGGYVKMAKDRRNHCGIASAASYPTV

[18] = molecular target: T4, Mannose-6-phosphate isomerase (Homo sapiens, UniProt P34949); assay: MPI enzyme activity inhibition – biochemical, fluorescence intensity, coupled assay, primary screen (AID 1209)
T4 sequence (P34949 whole entry): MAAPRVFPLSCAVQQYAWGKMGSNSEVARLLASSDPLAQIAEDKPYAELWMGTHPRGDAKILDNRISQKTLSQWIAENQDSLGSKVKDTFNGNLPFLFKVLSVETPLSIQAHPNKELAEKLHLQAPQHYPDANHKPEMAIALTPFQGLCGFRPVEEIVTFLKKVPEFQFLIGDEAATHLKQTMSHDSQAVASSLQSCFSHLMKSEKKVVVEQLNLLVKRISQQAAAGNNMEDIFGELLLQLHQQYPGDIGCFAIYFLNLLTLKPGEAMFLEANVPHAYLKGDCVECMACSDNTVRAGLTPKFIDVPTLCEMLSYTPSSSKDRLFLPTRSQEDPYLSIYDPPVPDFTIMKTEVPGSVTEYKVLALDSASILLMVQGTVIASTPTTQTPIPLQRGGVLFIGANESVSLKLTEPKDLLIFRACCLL

[19] = molecular target: T5, RNA-editing ligase 1, mitochondrial (Trypanosoma brucei brucei, UniProt P86926); assay: inhibition of trypanosome RNA editing ligase – biochemical, fluorescence, Trypanosoma brucei, dose response (AID 1117295); type: functional
T5 sequence (P86926 whole entry): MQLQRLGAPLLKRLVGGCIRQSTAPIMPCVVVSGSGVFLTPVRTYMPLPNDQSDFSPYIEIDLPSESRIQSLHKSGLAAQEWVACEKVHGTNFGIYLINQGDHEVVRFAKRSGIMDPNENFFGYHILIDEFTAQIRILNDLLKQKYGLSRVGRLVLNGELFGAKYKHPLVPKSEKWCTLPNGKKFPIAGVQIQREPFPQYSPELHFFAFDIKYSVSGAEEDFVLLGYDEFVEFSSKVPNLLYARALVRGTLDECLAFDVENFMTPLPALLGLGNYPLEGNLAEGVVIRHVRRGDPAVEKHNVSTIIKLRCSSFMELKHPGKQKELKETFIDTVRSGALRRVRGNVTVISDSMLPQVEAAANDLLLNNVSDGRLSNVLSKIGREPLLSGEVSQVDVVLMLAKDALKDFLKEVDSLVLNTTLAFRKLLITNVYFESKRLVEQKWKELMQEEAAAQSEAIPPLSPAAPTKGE
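For AC50 in this document: cells exposed to compound for roughly 70 hours or longer before luminescence read.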

SMILES: Cc1ccc(/C=N/c2ccccc2C(N)=O)s1
AC50 [1]: 2.44 µM (active)
CC50 [2]: 2.54 µM (active)

SMILES: N#Cc1nc(-c2ccc(OCc3ccc(Cl)cc3)cc2)oc1NCc1cccnc1
IC50 [3]: 37.4 µM (not active)

SMILES: COc1cc(CN(C)CCc2ccccc2)ccc1OCc1ccccc1
EC50 [4]: < 0.1 µM (active)
EC50 [5]: 0.006 µM (active)
EC50 [6]: 19.1 µM (active)

SMILES: CC(=O)c1ccc2c(c1)C1C=CCC1C(c1ccc(S(=O)(=O)N3CCOCC3)cc1)N2 (configuration not stated)
IC50 [7]: 22.5 µM (active)
CC50 [8]: 17.2 µM (active)

SMILES: CC(C)(C)NCC(O)c1cc(O)cc(O)c1 (configuration not stated) [TERBUTALINE SULFATE]
IC50 [9]: > 20 µM (inactive)
IC50 [10]: > 20 µM (inactive)
IC50 [11]: > 20 µM (inactive)
IC50 [12]: > 20 µM (inactive)
IC50 [13]: > 20 µM (inactive)
IC50 [14]: > 20 µM (inactive)

The remaining lines, values ahead:

IC50 [15]: > 73.5 µM (not active)
IC50 [16]: 6.42 µM (active)
IC50 [17]: > 59.6 µM (not active)
SMILES: CC1=C(C)CC(C(=O)Nc2cccc([N+](=O)[O-])c2)C(C(=O)O)C1 (configuration not stated)

IC50 [15]: > 73.5 µM (not active)
IC50 [16]: 1.45 µM (active)
IC50 [17]: > 59.6 µM (not active)
SMILES: Cc1ccc(-n2c(C)cc(C(=O)COC(=O)c3ccc[nH]c3=O)c2C)cc1C

IC50 [18]: > 50 µM (not active)
SMILES: Cn1c(=O)c([N+](=O)[O-])c(Oc2ccccc2)c2ccccc21

IC50 [19]: > 96.6 µM (inactive)
SMILES: CC(C)Nc1nc(NCCOc2ccccc2Cl)c2sc(-c3ccccc3)cc2n1
